{
  "source": "paper PMC11205445",
  "about": "“Babesia duncani Pyruvate Kinase Inhibitor Screening and Identification of Key Active Amino Acid Residues” (Microorganisms, 2024)",
  "key": {"C=C(OP(=O)(O)O)C(=O)O": {"test_system": "C=C(OP(=O)(O)O)C(=O)O", "experiment": "purified protein, by the assay type", "conditions": "other: substrate of BdPyK I, gradient concentration; pH 7.5; 37.0 °C", "procedure": "(§2) To conduct standard enzyme kinetics analysis, we employed a spectrophotometer (BioTek, located in Winooski, VT, USA) to monitor the degradation of NADH at 340 nm wavelength. At 37 °C, the oxidation of 1 micromole of NADH per minute was defined as one unit of PyK activity. Samples were measured continuously at 2, 7, 12, 17, 22, and 27 min. In order to investigate the influence of pH, Mg^2+, and K^+ concentrations on activity, tests were conducted within the pH range of 4.0–8.0 and Mg^2+ and K^+ concentrations ranging from 0 to 200 mM, including concentrations of 0, 25, 50, 75, 100, 125, 150, 175, and 200 mM. A reaction system with a total volume of 200 mL was designed, comprising 50 mM Tris-HCl buffer (pH 7.5), 50 mM MgCl2, 20 mM KCl, 3 mM PEP (MilliporeSigma), 3 mM ADP (MilliporeSigma), 0.5 mM NADH (MilliporeSigma), 100 ng recombinant lactate dehydrogenase (rBdLDH), and 100 ng BdPyK I. Enzyme activity was assessed by calculating the initial rate of NADH degradation within the first 5 min and determining the relative percentage activity.\n(§3) Subsequently, Michaelis–Menten equations for the reactants PEP and ADP were formulated based on gradient concentrations, and corresponding enzyme kinetics curves were delineated."}, "[1]": {"test_system": "Nc1ncnc2c1ncn2[C@@H]1O[C@H](COP(=O)(O)OP(=O)(O)O)[C@@H](O)[C@H]1O", "experiment": "purified protein, by the assay type", "conditions": "other: substrate of BdPyK I, gradient concentration; pH 7.5; 37.0 °C", "procedure": "as §2, §3"}, "B. duncani": {"test_system": "B. duncani", "experiment": "In vitro growth inhibition assay of Babesia duncani (SYBR Green, 72 h)", "assay_type": "cell-based", "conditions": "for parasite growth inhibition: at approximately 40 μM"}, "BdPyK I [2]": {"target": "T1, BdPyK I (Babesia duncani, UniProt A0AAD9PKI2)", "T1 sequence (A0AAD9PKI2 entry or part of it)": "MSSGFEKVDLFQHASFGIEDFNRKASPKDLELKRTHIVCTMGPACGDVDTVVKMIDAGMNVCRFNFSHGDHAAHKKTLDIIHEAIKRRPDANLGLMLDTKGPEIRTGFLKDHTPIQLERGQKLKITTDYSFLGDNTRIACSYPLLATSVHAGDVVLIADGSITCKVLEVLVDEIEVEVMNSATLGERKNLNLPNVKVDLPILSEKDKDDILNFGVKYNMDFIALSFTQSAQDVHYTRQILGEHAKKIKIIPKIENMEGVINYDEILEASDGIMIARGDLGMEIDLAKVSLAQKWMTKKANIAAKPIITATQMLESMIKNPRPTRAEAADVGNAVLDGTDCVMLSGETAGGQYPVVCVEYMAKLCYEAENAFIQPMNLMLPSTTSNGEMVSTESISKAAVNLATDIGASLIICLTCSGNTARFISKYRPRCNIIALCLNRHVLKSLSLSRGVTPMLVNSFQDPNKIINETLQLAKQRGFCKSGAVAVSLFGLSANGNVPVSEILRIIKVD", "experiment": "BdPyK I enzyme inhibition, indirect coupled lactate dehydrogenase assay (NADH at 340 nm)", "assay_type": "biochemical", "text": "This study aimed to investigate the effects of six small-molecule compounds on the enzyme activity of BdPyK I. These selected compounds, including PKM2 inhibitor, shikonin, tannic acid, apigenin, pioglitazone, and rosiglitazone, were initially dissolved in their respective stock concentrations using dimethyl sulfoxide (DMSO) or absolute ethanol as solvents. Subsequently, an indirect coupling lactate dehydrogenase assay was employed to evaluate the influence of these compounds on BdPyK I enzyme activity.\nTo conduct standard enzyme kinetics analysis, we employed a spectrophotometer (BioTek, located in Winooski, VT, USA) to monitor the degradation of NADH at 340 nm wavelength. At 37 °C, the oxidation of 1 micromole of NADH per minute was defined as one unit of PyK activity. Samples were measured continuously at 2, 7, 12, 17, 22, and 27 min. In order to investigate the influence of pH, Mg^2+, and K^+ concentrations on activity, tests were conducted within the pH range of 4.0–8.0 and Mg^2+ and K^+ concentrations ranging from 0 to 200 mM, including concentrations of 0, 25, 50, 75, 100, 125, 150, 175, and 200 mM. A reaction system with a total volume of […] was designed, comprising 50 mM Tris-HCl buffer (pH 7.5), 50 mM MgCl2, 20 mM KCl, 3 mM PEP (MilliporeSigma), 3 mM ADP (MilliporeSigma), 0.5 mM NADH (MilliporeSigma), 100 ng recombinant lactate dehydrogenase (rBdLDH), and 100 ng BdPyK I. Enzyme activity was assessed by calculating the initial rate of NADH degradation within the first 5 min and determining the relative percentage activity.\nUnder the conditions of 3 mM PEP and 3 mM ADP, the influence of six different small-molecule compounds on the enzymatic activity of BdPyK I was investigated across varying concentrations (0–500 μM). […] The group with the addition of DMSO was designated as the negative control group. The inhibition rate was calculated using the following formula: Inhibitor (%) = (ΔAcontrol − ΔAsample)/ΔAcontrol × 100%. All experiments were independently repeated three times to enhance the reliability and accuracy of the results. Following completion of the experiments, enzyme activity data were analyzed using GraphPad Prism 8.0 software. IC50 values for each small-molecule compound were calculated using software analysis functions. The IC50 value represents the compound concentration required to decrease enzyme activity by 50% and serves as a fundamental parameter for evaluating the inhibitory effect of compounds on enzyme activity."}, "BdPyK I [3]": {"target": "T1, BdPyK I", "experiment": "Enzyme kinetics of BdPyK I with gradient concentrations of substrates PEP and ADP", "conditions": "substrate of BdPyK I", "procedure": "as §2, §3"}, "vero cells [4]": {"test_system": "vero cells", "set-up": "method as in PMID 34603237", "conditions": "cited from earlier work"}, "vero cells [5]": {"test_system": "vero cells", "experiment": "Cytotoxicity assay, vero cells", "assay_type": "cell-based", "conditions": "CC50 Vero versus IC50 B. duncani", "text": "(§1) The IC50 value represents a standard metric indicating the concentration of a drug or compound necessary to impede a biological process or inhibit cell growth. In this experiment, the IC50 values of six different compounds against B. duncani in vitro were compared with their IC50 values for BdPyK I activity. […] To contextualize these findings, the CC50 values for vero cells and HFF cells from cytotoxicity assay data were considered collectively. […] Considering the activity, selectivity, and potential toxicity, this study conducted a comprehensive evaluation of the selectivity index (SI)."}, "HFF cells [6]": {"test_system": "HFF cells", "experiment": "Cytotoxicity assay, HFF cells", "assay_type": "cell-based", "conditions": "CC50 HFF versus IC50 B. duncani", "text": "as §1"}, "HFF cells [7]": {"test_system": "HFF cells", "set-up": "method as in PMID 34603237", "conditions": "cited from earlier work"}, "[8]": {"set-up": "method as in PMID 34603237", "conditions": "in vivo experiments with Babesia rodents; cited from earlier work"}, "BdLDH": {"target": "BdLDH", "experiment": "Effect of compounds on BdLDH enzyme activity (counter-screen of the coupled assay)", "assay_type": "biochemical, Babesia duncani", "conditions": "BdLDH activity evaluated separately"}, "[9]": {"conditions": "Babesia duncani, 72 h incubation, SYBR Green, read-out: IC50 of B. duncani growth inhibition (Figure 10)"}, "[10]": {"conditions": "3 mM PEP and 3 mM ADP, compound 0–500 μM, read-out: IC50 PyK I"}, "[11]": {"conditions": "Babesia duncani, in vitro culture, 72 h, Table 3, read-out: IC50 B. duncani"}},
  "note": "Several values for one entry are separate records, joined by “and”; a condition that tells them apart may be missing. Equal values may be shown once. Read-outs that look alike come from different tables or passages of the source.",
  "data": [
    {"molecule": "BdPyK I (Babesia duncani)", "values": [
      {"measurement": "Km", "setting": "C=C(OP(=O)(O)O)C(=O)O", "result": "450 ± 104", "unit": "µM"},
      {"measurement": "Vmax", "setting": "C=C(OP(=O)(O)O)C(=O)O", "result": 370, "unit": "µM/min"},
      {"measurement": "kcat", "setting": "C=C(OP(=O)(O)O)C(=O)O", "result": 18.3, "unit": "s⁻¹"},
      {"measurement": "kcat/Km", "setting": "C=C(OP(=O)(O)O)C(=O)O", "result": 40100, "unit": "M⁻¹ s⁻¹"},
      {"measurement": "Km", "setting": "[1]", "result": "310 µM and 313.6 ± 24 µM"}
    ]},
    {"molecule": "CN(CCOc1ccc(CC2SC(=O)NC2=O)cc1)c1ccccn1", "note": "(stereo not shown) [Rosiglitazone]", "values": [
      {"measurement": "IC50", "setting": "B. duncani; [9]", "result": 20.9, "unit": "µM"},
      {"measurement": "parasite growth inhibition", "setting": "B. duncani; 72 h", "result": 80, "unit": "%"},
      {"measurement": "IC50", "setting": "BdPyK I [2]; [10]", "result": 7.36, "unit": "µM"}
    ]},
    {"molecule": "Nc1ncnc2c1ncn2[C@@H]1O[C@H](COP(=O)(O)OP(=O)(O)O)[C@@H](O)[C@H]1O", "note": "[ADP]", "values": [
      {"measurement": "Kcat", "setting": "BdPyK I [3]", "result": 16, "unit": "S^−1"},
      {"measurement": "Vmax", "setting": "BdPyK I [3]; gradient concentration", "result": "0.3234 ± 0.018", "unit": "mM/min"}
    ]},
    {"molecule": "CCc1ccc(CCOc2ccc(CC3SC(=O)NC3=O)cc2)nc1", "note": "(stereo not shown) [Pioglitazone]", "values": [
      {"measurement": "IC50", "setting": "B. duncani; [9]", "result": 15.4, "unit": "µM"},
      {"measurement": "parasite growth inhibition", "setting": "B. duncani; 72 h", "result": 80, "unit": "%"},
      {"measurement": "IC50", "setting": "BdPyK I [2]; [10]", "result": 27.5, "unit": "µM"}
    ]},
    {"molecule": "CC1=C(CSC(=S)N2CCCCC2)C(=O)c2ccccc2C1=O", "note": "[PKM2 inhibitor]", "values": [
      {"measurement": "IC50", "setting": "B. duncani; [11]", "result": "0.16 ± 0.08", "unit": "µM"},
      {"measurement": "growth inhibition rate", "setting": "B. duncani; at approximately 2 μM, 72 h", "result": 85, "unit": "%"},
      {"measurement": "IC50", "setting": "BdPyK I [2]; [10]", "result": 10.9, "unit": "µM"},
      {"measurement": "CC50", "setting": "vero cells [4]", "result": "39.3 ± 8.32", "unit": "µM"},
      {"measurement": "Selectivity Index (SI) Vero", "setting": "vero cells [5]", "result": 243},
      {"measurement": "Selectivity Index (SI) HFF", "setting": "HFF cells [6]", "result": 116},
      {"measurement": "CC50", "setting": "HFF cells [7]", "result": "18.7 ± 1.99", "unit": "µM"}
    ]},
    {"molecule": "O=c1cc(-c2ccc(O)cc2)oc2cc(O)cc(O)c12", "note": "[Apigenin]", "values": [
      {"measurement": "toxicity in vivo", "setting": "[8]", "result": "high toxicity"},
      {"measurement": "IC50", "setting": "B. duncani; [11]", "result": "2.81 ± 1.06", "unit": "µM"},
      {"measurement": "IC50", "setting": "BdPyK I [2]", "result": 7.49, "unit": "µM"},
      {"measurement": "CC50", "setting": "vero cells [4]", "result": "58.2 ± 2.67", "unit": "µM"},
      {"measurement": "Selectivity Index (SI) Vero", "setting": "vero cells [5]", "result": 20.64},
      {"measurement": "Selectivity Index (SI) HFF", "setting": "HFF cells [6]", "result": 12.8},
      {"measurement": "CC50", "setting": "HFF cells [7]", "result": "36 ± 2.95", "unit": "µM"}
    ]},
    {"molecule": "Tannic acid", "values": [
      {"measurement": "IC50", "setting": "B. duncani; in vitro culture, 72 h, Table 3, read-out: IC50 B. duncani", "result": "1.71 ± 0.33", "unit": "µM"},
      {"measurement": "IC50", "setting": "BdPyK I [2]; [10]", "result": 0.03, "unit": "µM"},
      {"measurement": "IC50", "setting": "BdPyK I [2]; 3 mM PEP and 3 mM ADP, read-out: IC50 on BdPyK I (Figure 9)", "result": 0.0332, "unit": "µM"},
      {"measurement": "IC50", "setting": "BdPyK I [2]; Table 3, read-out: IC50 PyK I Activity", "result": 0.03, "unit": "µM"},
      {"measurement": "IC50", "setting": "BdLDH", "result": 1.32, "unit": "µM"},
      {"measurement": "CC50", "setting": "vero cells [4]", "result": "53 ± 2.37", "unit": "µM"},
      {"measurement": "CC50", "setting": "HFF cells [7]", "result": "36.5 ± 3.88", "unit": "µM"}
    ]},
    {"molecule": "CC(C)=CC[C@@H](O)C1=CC(=O)c2c(O)ccc(O)c2C1=O", "note": "[Shikonin]", "values": [
      {"measurement": "IC50", "setting": "B. duncani; [11]", "result": "3.68 ± 0.48", "unit": "µM"},
      {"measurement": "IC50", "setting": "BdPyK I [2]; [10]", "result": 16.5, "unit": "µM"},
      {"measurement": "CC50", "setting": "vero cells [4]", "result": "2.34 ± 0.29", "unit": "µM"},
      {"measurement": "Selectivity Index (SI) Vero", "setting": "vero cells [5]", "result": 0.64},
      {"measurement": "Selectivity Index (SI) HFF", "setting": "HFF cells [6]", "result": 0.17},
      {"measurement": "CC50", "setting": "HFF cells [7]", "result": "0.63 ± 0.32", "unit": "µM"}
    ]}
  ]
}
